The source of these data is PubChem BioAssay (NCI).

Where “and” joins values, the source holds several entries; their conditions need not be identical. Equal entries are not always repeated.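 1) Cells in 96-well plates. 2) Compound, 48 h, 5 concentrations. 3) Linear interpolation between surrounding doses. 4) Unreached endpoint = highest concentration. The concentration for 50% growth inhibition is given as GI50. TGI: concentration producing complete growth inhibition.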

What all share (experiment): NCI tumour cell line growth inhibition, 48 h
The subject of assay [1] is SK-MEL-2 melanoma.
Assay [2] concerns HCT-116 colon.
The subject of assay [3] is A498 renal.
Assay [4] relates to SW-620 colon.
Assay [5] concerns SF-295 CNS.
For assay [6], the system named is T-47D breast.
The subject of assay [7] is SF-268 CNS.
The subject of assay [8] is EKVX NSCLC.
Assay [9] has as its system NCI-H522 lung.
Assay [10] concerns K-562 leukemia.

On to `O=C(O)CCC(=O)c1ccc2sc3ccccc3c2c1`, for which the TGI in [1], in assay [2], in assay [3], in assay [4], in assay [5] and in assay [6] was > 100 µM each time. For the same compound, the TGI in assay [7], in [8], in assay [9] and in [10] was > 100 µM in each case.
With `OC(C#Cc1ccccc1)(c1ccccc1)c1ccccc1`, the TGI in [1] was 55.4 µM; in assay [2], > 100 µM; in assay [3] it was 83.4 µM; in assay [4], > 100 µM; in [5], 77.7 µM; in [6], 78.1 µM. Besides, the TGI in [7] is 54.9 µM; in assay [8], 82.4 µM; in assay [9], > 100 µM; in assay [10], > 100 µM.
`CCC1(O)C(=O)OCc2c1cc1n(c2=O)Cc2cc3c(NC(=O)CN)cccc3nc2-1` (configuration not stated): the GI50 in assay [1] was 9.74 µM; in [2], 1.01 µM; in assay [3] it was 0.883 µM; in [4] it was 1.75 µM; in [5] it was 0.368 µM; in assay [6] it was 0.329 µM. The GI50 was 0.191 µM in assay [7], 19.7 µM in assay [8], 0.387 µM in assay [9] and 1.07 µM in assay [10]. Also, the TGI in [1] was 41.1 µM; in [2] it was > 62.5 µM; in [3] it was 5.65 µM; in [4], 97.9 µM; in assay [5] it was 28 µM; in assay [7], 46.5 µM. Further, the results for the TGI in assay [8], in [9] and in assay [10] were > 88.2 µM, 9.9 µM and > 100 µM, respectively.
For `Oc1cccc2ccc(N/N=C/c3cc(CN4CCOCC4)c(O)c4ncccc34)nc12`, the GI50 was < 0.0181 µM in [1]; 0.0223 µM in [2]; 0.376 µM in assay [3]; 0.0471 µM in [5]; 0.0274 µM in assay [6]; 0.0372 µM in [7]. In addition, the GI50 is 0.0962 µM in assay [8], < 0.0165 µM in assay [9] and 0.0152 µM in [10]. Moreover, the TGI in assay [1] came out at 0.26 µM; in assay [2], 2.77 µM; in assay [3], 4.06 µM; in assay [4], 2.41 µM; in [5] it was 5.27 µM; in assay [6] it was 0.682 µM. The TGI in assay [7] is 13.4 µM; in [8], 11.2 µM; in assay [9] it was 1.48 µM; in [10], 6.03 µM.
Consider `COc1ccc(/C=C(\C#N)n2nnc3c(F)cccc32)cc1`, for which the GI50 in [1] was 0.504 µM; in assay [2], 0.363 µM; in assay [3], 0.22 µM; in [4], 0.2 µM; in [5], 0.275 µM; in assay [6], 1.05 µM. The GI50 is 1.68 µM in assay [7], 0.501 µM in assay [8], 0.182 µM in assay [9] and 0.0645 µM in assay [10]. The TGI is > 49.9 µM in assay [1]; > 31.6 µM in assay [2]; 1.04 µM in [3]; > 100 µM in assay [4]; 2.72 µM in assay [5]; > 100 µM in assay [6]. In addition, the TGI in assay [7], in [8] and in [10] was > 100 µM in each case.
Take `Cc1cc(C#Cc2ccc(C(C)(C)C)cc2)ccc1-n1c(/C=C/c2ccc(O)cc2O)nc2ccccc2c1=O`: the GI50 in assay [1] is 3.52 µM; in assay [2] it was 2.89 µM; in assay [3], 2.98 µM; in assay [4] it was 1.81 µM; in assay [5], 3.83 µM; in [6], 3.85 µM. Besides, the GI50 in [7] was 4.82 µM; in assay [8], 3.67 µM; in assay [9] it was 1.83 µM; in assay [10], 3.28 µM. Also, the TGI amounted to 13.4 µM in [1]; 10.8 µM in assay [2]; 11.4 µM in assay [3]; 3.71 µM in assay [4]; 16.5 µM in [5]; 24.4 µM in assay [6]. For the same compound, the TGI came to 18 µM in assay [7], 16.2 µM in assay [8], 5.5 µM in assay [9] and 14.1 µM in assay [10].
Turning to `c1ccc2c(c1)Nc1ccncc1S2`, the GI50 was 13.6 µM in assay [1]; 20.5 µM in [2]; 5.13 µM in assay [3]; 21.2 µM in assay [4]; 14.7 µM in assay [5]; 22.4 µM in [6]. The GI50 in assay [7] was 24.5 µM; in [8], 12.1 µM; in [9], 11.8 µM; in [10], 29.4 µM. The TGI was 36.7 µM in assay [1]; > 100 µM in assay [2]; 24.4 µM in assay [3]; 92.6 µM in [4]; 68.8 µM in assay [5]; 96.3 µM in assay [6]. Further, the TGI in assay [7] is > 100 µM; in assay [8], 81.5 µM; in assay [9], 65.7 µM; in assay [10], > 100 µM.
With `COC1=C(OC)C(=O)C(SC/C=C(\C)CCCC(C)CCCC(C)CCCC(C)C)=CC1=O` (configuration not stated), the GI50 was 0.802 µM in assay [1]; 0.574 µM in assay [2]; 1.57 µM in [3]; 0.872 µM in [4]; 0.734 µM in [5]; 0.478 µM in [6]. The GI50 in assay [7] is 1.98 µM; in assay [8], 1.11 µM; in [9] it was 0.635 µM; in assay [10] it was 0.678 µM. For the same compound, the TGI was 4.24 µM in assay [1]; > 39.7 µM in [2]; 6.05 µM in [3]; > 100 µM in assay [4]; 2.88 µM in [5]; 12.1 µM in assay [6]. The TGI was > 100 µM in [7], > 37.7 µM in [8], > 38.1 µM in assay [9] and > 100 µM in [10].
Turning to `Cc1cc(N(CCCNc2ccnc3cc(Cl)ccc23)Cc2ccco2)nc(N2CCN(C)CC2)n1`, the GI50 was 1.95 µM in assay [1]; 2.48 µM in assay [2]; 9.15 µM in assay [3]; 2.82 µM in [4]; 1.87 µM in assay [5]; 2.15 µM in assay [6]. Also, the GI50 was 2.9 µM in assay [7], 4.99 µM in [8], 3.62 µM in assay [9] and 2.07 µM in [10]. Also, the TGI in [1] came to 4.21 µM; in assay [2], 10.7 µM; in [3], 45.5 µM; in assay [4] it was 12.2 µM; in [5], 3.84 µM; in [6], 5.68 µM. Moreover, the TGI in [7] is 15.7 µM; in assay [8] it was 22 µM; in assay [9], 14.4 µM; in assay [10], 10.4 µM.
For the compound `O=C1OC(C(O)CO)C(O)=C1O` (configuration not stated), the GI50 was 2190 µM in assay [1]; 250 µM and 641 µM in assay [2]; 4650 µM and > 10000 µM in assay [3]; 191 µM and 189 µM in assay [4]; 6830 µM and > 4590 µM in [5]; 2080 µM and 2100 µM in assay [6]. For the same compound, the GI50 is 2120 µM and 1960 µM in assay [7]; 2420 µM in assay [8]; 1590 µM and 293 µM in [9]; 378 µM and 337 µM in assay [10]. Besides, the TGI is 4940 µM and > 3780 µM in assay [1]; 534 µM and 2110 µM in assay [2]; > 10000 µM in assay [3]; 408 µM and 412 µM in assay [4]; > 10000 µM in assay [5]; 4800 µM and 4380 µM in [6]. The TGI is 4020 µM in assay [7]; 4390 µM in [8]; 3380 µM and > 3070 µM in [9]; 1460 µM and 1210 µM in assay [10].
`C[N+](C)(C)CC1CCCC1=O` (configuration not stated): the TGI in [1] turned out to be 12.2 µM; in assay [2] it was 3.74 µM; in [3], 17.7 µM; in assay [4], 1.07 µM; in assay [5], 36.4 µM; in [6], 0.448 µM. Besides, the TGI was 20.8 µM in assay [7], 4.62 µM in [8], 0.0171 µM in assay [9] and > 100 µM in assay [10].
On to `COC1C(N)C(OC2C(Oc3cccc4c(O)c5c(=O)oc6ccc(C)c7c(=O)oc(c34)c5c67)OC(C)C(O)C2(C)O)OC(C)C1O` (configuration not stated), for which the TGI was determined as 0.0378 µM in assay [1]; 0.118 µM in assay [2]; 0.155 µM in assay [3]; 1.61 µM in assay [4]; 1.21 µM in [5]; 1.43 µM in assay [6]. Moreover, the TGI in assay [7] was found to be 0.104 µM; in assay [8] it was 1.03 µM; in assay [9], 0.181 µM; in assay [10], 1.56 µM.
Consider `Cc1cccc2c3c(sc12)C(c1ccc(Cl)cc1)C(C#N)=C(N)O3` (configuration not stated), for which the GI50 was 1.41 µM in assay [1]; 0.389 µM in assay [2]; 0.211 µM in [3]; 0.416 µM in assay [4]; 0.26 µM in assay [5]; 0.411 µM in assay [6]. Also, the GI50 was 1.41 µM in assay [7], 0.57 µM in assay [8], 0.314 µM in assay [9] and 0.285 µM in assay [10]. Also, the TGI in assay [1] was 21 µM; in assay [2], 4.95 µM; in [3], 1.2 µM; in assay [4] it was 11.6 µM; in [5] it was 0.992 µM; in assay [6], 25.3 µM. Also, the TGI in [7] was determined as 14.8 µM; in assay [8], 17.8 µM; in assay [9] it was 4.95 µM; in [10], 14.2 µM.
Regarding `COc1ccc(-c2nc(/C=C3\SC(=NCc4ccccc4)NC3=O)c3ccccn23)cc1`, the GI50 in [1] was 2.19 µM; in assay [2], 0.276 µM; in assay [3] it was 1.51 µM; in [4] it was 1.68 µM; in [5], 2.25 µM; in [6], 1.26 µM. For the same compound, the GI50 in [7] was 0.377 µM; in assay [8], 2.41 µM; in assay [9], 0.79 µM; in assay [10], 2.76 µM. Further, the TGI in assay [1] was 7.25 µM; in [2], 1.06 µM; in assay [3], 6.56 µM; in [4] it was 3.45 µM; in assay [5], 7.62 µM; in [6], 3.11 µM. Besides, the TGI in assay [7] was 1.57 µM; in assay [8], > 25.5 µM; in assay [9], 7.16 µM; in assay [10], > 100 µM.
For the compound `N#CCN1CCn2c1nsc2=S`, the GI50 in [1], in [2], in assay [3], in assay [4], in assay [5] and in [6] was > 100 µM throughout. The GI50 was > 100 µM in [7], > 100 µM in [8], 64.7 µM in [9] and 48.2 µM in [10]. Besides, the TGI in assay [1], in [2], in [3], in assay [4], in [5] and in [6] was > 100 µM in each case. Further, the TGI in assay [7], in assay [8], in assay [9] and in [10] was > 100 µM in each case.
`c1ccc2cc(-c3n(Cc4ccc5ccccc5n4)c4ccccc4[n+]3Cc3ccc4ccccc4n3)ccc2c1`: the GI50 was 0.283 µM in [1]; 0.272 µM in assay [2]; 0.121 µM in assay [3]; 0.346 µM in [4]; 0.301 µM in [5]; 0.222 µM in [6]. Moreover, the GI50 in assay [7] was 0.332 µM; in assay [8], 0.517 µM; in assay [9] it was 0.321 µM; in assay [10] it was 0.16 µM. The TGI in [1] came out at 1.01 µM; in assay [2] it was 1.12 µM; in assay [3] it was 0.801 µM; in assay [4], 1.42 µM; in assay [5], 1.09 µM; in assay [6], 1.28 µM. Besides, the TGI in assay [7] is 1.42 µM; in [8], 2.08 µM; in assay [9], 1.25 µM; in assay [10], 1.39 µM.
